Laboratory results: US11384381B2, “Reaction accelerating agent” (Kikkoman Corporation, priority 2016, dated 2022)

Legend:
CFP-DH4 (A1cOX) [1] = assay: HbA1c detection reaction completed with excess A1cOX (Example 4); assay type: biochemical; conditions: 0.04% (w/v) compound, 5.3 mg/ml CFP-DH4 (excess), blood cells 10.4% HbA1c, pH 6.5, 37° C.
Procedure: In this Example, the amount of change in absorbance when an excess amount of A1cOX is used and HbA1c detection reaction was completed is determined.
A reagent for HbA1c measurement having the following composition was prepared, and the measurement of HbA1c was carried out using Bio Majesty JCA-BMI650 (manufactured by JEOL Ltd.).
(§1) Blood cells (10.4% HbA1c (NGSP value))
(§2) 30 mM MOPS-NaOH buffer solution, pH 6.5
0.2% (w/v) n-dodecyl-β-D-maltoside (manufactured by Dojindo Laboratories)
(§3) 10 U/ml peroxidase PEO-301 (Toyobo Co., Ltd.)
(§4) 0.023 mM 10-(carboxymethylaminocarbonyl)-3,7-bis(dimethylamino)phenothiazine sodium (DA-67, manufactured by Wako Pure Chemical Industries, Ltd.)
0.04% (w/v) of the compound of Comparative Example 2 (Wako Pure Chemical Industries, Ltd.), any one compound of the present invention (all from Tokyo Chemical Industry Co., Ltd. except for Acid Yellow 34 from MP Biomedicals, LLC), or compound-free (Comparative Example 1) ion-exchange water as shown in Table 1 (Second Reagent-A) 10 mM MOPS-NaOH buffer solution, pH 6.5 5.3 mg/ml CFP-DH4 (A cOX)
8 μl of the sample diluted 51-fold with ion-exchange water was added to 96 μl of the first reagent-A, and the mixture was incubated at 37° C. for 5 minutes. Then, 24 μl of the second reagent-A was added thereto, and the quantitative reaction of hydrogen peroxide resulting from the oxidation of the β-chain amino terminus of HbA1c was allowed to progress at 37° C. for 5 minutes. The absorbance (A694 and A751) of the reaction solution for light at wavelengths of 694 nm and 751 nm was measured over time for 10 minutes after the mixing of the diluted sample with the first reagent-A to determine the value subtracting of A751 from A694, i.e., the value A694/751. Subsequently, ΔA was calculated by subtracting, from A694/751, the value of (104/128) times A694/751 4.8 minutes after mixing the diluted sample with the first reagent-A. Incidentally, 4.8 minutes after the mixing of the diluted sample with the first reagent-A represents the time immediately before the addition of the second reagent-A. ΔA 9 minutes and 10 minutes after the mixing of the diluted sample with the first reagent (ΔA9min and ΔA10min) are shown in Table 1.
In other words, it can be recognized that the quantitative reaction of HbA1c, i.e., the quantitative reaction of hydrogen peroxide resulting from the oxidation of HbA1c, was completed in 10 minutes after the mixing of the diluted sample with the first reagent-A. Accordingly, in Examples 4 and 5, ΔA10min in each Comparative Example or the present invention was defined as ΔA when 100% of the quantitative reaction of HbA1c progressed under each condition (ΔA100%).

CFP-DH4 (A1cOX) [2] = assay: Acceleration of HbA1c detection reaction with small amount of A1cOX (Example 5); assay type: biochemical; conditions: HbA1c detection reaction, ΔA/ΔA100%, 0.04% (w/v) compound, 1.1 mg/ml CFP-DH4
Procedure: Next, in this Example, the degree of acceleration of HbA1c detection reaction by the compound of the present invention was determined using a small amount of A1cOX.
A reagent for HbA1c measurement having the following composition was prepared, and the measurement of HbA1c was carried out using Bio Majesty JCA-BM1650 (manufactured by JEOL Ltd.).
as §1, §2
0.2% (w/v) n-dodecyl-3-D-maltoside (manufactured by Dojindo Laboratories)
as §3, §4
0.04% (w/v) of the compound of Comparative Example 2, any one compound of the present invention, or compound-free (Comparative Example 1) ion-exchange water as shown in Table 2
10 mM MOPS-NaOH buffer solution, pH 6.5
1.1 mg/ml CFP-DH4 (A cOX)
8 μl of the sample diluted 51-fold with ion-exchange water was added to 96 μl of the first reagent, and the mixture was incubated at 37° C. for 5 minutes. Then, 24 μl of the second reagent-B was added thereto, and the quantitative reaction of hydrogen peroxide resulting from the oxidation of the β-chain amino terminus of HbA1c was allowed to progress at 37° C. for 5 minutes. The absorbance ([…] and A751) of the reaction solution for light at wavelengths of 694 nm and 751 nm was measured over time for 10 minutes after the mixing of the diluted sample with the first reagent to determine the value of subtraction of A751 from A694, i.e., the value A694/751. Subsequently, ΔA was calculated by subtracting, from A694/751, the value of (104/128) times A694/751 4.8 minutes after the mixing of the diluted sample with the first reagent. Incidentally, […] after the mixing of the diluted sample with the first reagent represents the time immediately before the addition of the second reagent-B.
Next, ΔA calculated in this Example was divided by ΔA100% defined in Example 4 to calculate the degree of progression of HbA1c detection reaction. The degree of progression of HbA1c detection reaction 7.5 and 10 minutes after the mixing of the diluted sample with the first reagent (in other words, 2.5 and 5 minutes after the addition of the second reagent-B) is shown in Table 2.

For `O=C([O-])C1=NN(c2ccc(S(=O)(=O)[O-])cc2)C(=O)C1N=Nc1ccc(S(=O)(=O)[O-])cc1.[Na+].[Na+].[Na+]` (stereo not shown) [Tartrazine, reference compound], the ΔA9 min (CFP-DH4 (A1cOX) [1]; change in A694-A751 9 minutes after mixing sample with first reagent) was 0.032, the ΔA10 min (CFP-DH4 (A1cOX) [1]; change in A694-A751 10 minutes after mixing sample with first reagent, defined as ΔA100%) was 0.032 and the “Degree of progression of reaction (%) after 7.5 minutes” value (CFP-DH4 (A1cOX) [2]; 2.5 minutes after addition of second reagent, not added: 51) was 38%. For the same molecule, the “Degree of progression of reaction (%) after 10 minutes” value (CFP-DH4 (A1cOX) [2]; 5 minutes after addition of second reagent, not added: 73) was 62%.
